# Laboratory results as given in publication PMC4125136, “A Novel Dual Allosteric Activation Mechanism of Escherichia coli ADP-Glucose Pyrophosphorylase: The Role of Pyruvate” (PLoS ONE, 2014).
# Values joined by “and” are separate entries in the source; they are usually repeats but may differ in a detail not shown here. Equal entries are not always repeated. Where two headings read alike, the source gives them in different places.
# Experiments:
# [1] = target: T1, E. coli ADP-Glc PPase (Escherichia coli, UniProt P0A6V1); experiment: ADP-Glc synthesis assay (Pi formation, Malachite Green) with Hill-equation kinetic characterization; type: biochemical; settings: for IC50: read-out: I 0.5 for AMP
# T1 construct: made in house; host or cells: E. coli BL21 (DE3)
# Description: Synthesis of ADP-Glc was assayed by following the formation of Pi (after hydrolysis of pyrophosphate by inorganic pyrophosphatase) as previously described. Unless otherwise stated, a 50 µl reaction mixture contained 100 mM HEPES (pH 8.0), 10 mM MgCl2, 1.5 mM ATP, 0.2 mg/ml bovine serum albumin, 0.5 mU/µl yeast inorganic pyrophosphatase, and the given amount of enzyme. Assays were initiated with 1 mM Glc-1P. If mentioned, a given amount of Pyr, Fru-1,6-P2, and/or AMP was also included. After incubation for 10 min at 37°C, addition of Malachite Green reagent terminated the reaction. The complex formed with the released Pi was measured at 630 nm with an ELISA EMax detector (Molecular Devices). Sodium pyrophosphate was used as standard. One unit of enzyme activity was defined as the amount producing of 1 µmol of product in 1 min under the specified conditions.
# Data of enzyme activity were plotted versus effector concentration. Kinetic parameters from the Hill equation such as Hill coefficient (n H), maximal velocity (V max), as well as the activator substrate or inhibitor concentrations giving 50% of the maximal activation (A 0.5), velocity (S 0.5), or inhibition (I 0.5), were acquired by fitting the data with a non-linear least-squares algorithm using the program Origin 7.0 (OriginLab). Parameters are the mean of at least three independent sets of data, reproducible within ±10%. Sample standard deviations of the data were calculated from the Hill equation fitting by using the Levenberg–Marquardt method.
# [2] = target: T1, E. coli ADP-Glc PPase; settings: cited from earlier work
# [3] = tested on: A. tumefaciens ADP-Glc PPase; set-up: method as in PMID 9721178; settings: cited from earlier work
# [4] = F. 50 mM Pyr +150 µM Fru-1,6-P2
# [5] = 50 µM AMP and 100 µM Fru-1,6-P2 (Figure 5)
# T1 sequence (P0A6V1 whole entry): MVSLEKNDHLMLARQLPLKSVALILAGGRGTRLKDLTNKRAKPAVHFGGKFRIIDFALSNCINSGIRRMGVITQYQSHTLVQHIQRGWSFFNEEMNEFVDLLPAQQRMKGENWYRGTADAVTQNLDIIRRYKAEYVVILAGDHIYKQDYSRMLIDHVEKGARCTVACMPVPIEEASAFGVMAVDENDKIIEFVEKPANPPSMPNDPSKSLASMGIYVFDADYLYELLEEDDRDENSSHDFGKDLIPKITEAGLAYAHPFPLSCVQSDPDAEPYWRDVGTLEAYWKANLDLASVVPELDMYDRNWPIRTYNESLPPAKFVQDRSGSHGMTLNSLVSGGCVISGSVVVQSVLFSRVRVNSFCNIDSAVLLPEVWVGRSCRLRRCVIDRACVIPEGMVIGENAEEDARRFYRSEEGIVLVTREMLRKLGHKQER
structure (smiles),measurement,setting,value
Nc1ncnc2c1ncn2[C@@H]1O[C@H](COP(=O)(O)O)[C@@H](O)[C@H]1O [AMP],n H of AMP inhibition,"[1]; 100 µM Fru-1,6-P2, absence of Pyr",1.7
same,IC50,"[1]; 100 µM Fru-1,6-P2, absence of Pyr (Figure 4)",30 µM
same,remaining activity at maximum inhibition,"[1]; 100 µM Fru-1,6-P2, both in absence and presence of 20 mM Pyr",around 10%
same,n H of AMP inhibition,"[1]; 100 µM Fru-1,6-P2, presence of 20 mM Pyr",2.4
same,IC50,"[1]; 100 µM Fru-1,6-P2, presence of 20 mM Pyr (Figure 4)",110 µM
Nc1ncnc2c1ncn2[C@@H]1O[C@H](COP(=O)(O)OP(=O)(O)OP(=O)(O)O)[C@@H](O)[C@H]1O [ATP-Mg],ATP-Mg S 0.5,[1]; A. No effector,6.49 ± 0.21 mM
same,ATP-Mg n H,[1]; A. No effector,1.5
same,ATP-Mg S 0.5,[1]; B. 25 mM Pyr,1.67 ± 0.08 mM
same,ATP-Mg n H,[1]; B. 25 mM Pyr,2.5
same,ATP-Mg S 0.5,[1]; C. 50 mM Pyr,1.05 ± 0.06 mM
same,ATP-Mg n H,[1]; C. 50 mM Pyr,2.2
same,ATP-Mg S 0.5,"[1]; D. 25 mM Pyr +10 µM Fru-1,6-P2",0.99 ± 0.07 mM
same,ATP-Mg n H,"[1]; D. 25 mM Pyr +10 µM Fru-1,6-P2",3.6
same,ATP-Mg S 0.5,"[1]; E. 10 µM Fru-1,6-P2",5.02 ± 0.25 mM
same,ATP-Mg n H,"[1]; E. 10 µM Fru-1,6-P2",2.1
same,ATP-Mg S 0.5,[1]; [4],0.37 ± 0.03 mM
same,ATP-Mg n H,[1]; [4],2.4
same,ATP-Mg S 0.5,"[1]; G. 150 µM Fru-1,6-P2",1.31 ± 0.09 mM
same,ATP-Mg n H,"[1]; G. 150 µM Fru-1,6-P2",3.2
same,ATP-Mg S 0.5,"[1]; I. 2 mM Fru-1,6-P2",0.43 ± 0.02 mM
same,ATP-Mg n H,"[1]; I. 2 mM Fru-1,6-P2",2.1
same,ATP-Mg S 0.5,"[1]; J. 50 mM Pyr +2 mM Fru-1,6-P2",0.19 ± 0.02 mM
same,ATP-Mg n H,"[1]; J. 50 mM Pyr +2 mM Fru-1,6-P2",1.4
"O=C(COP(=O)(O)O)[C@@H](O)[C@H](O)[C@H](O)COP(=O)(O)O [Fru-1,6-P2, Fructose-1,6-bisphosphate]","A 0.5 for Fru-1,6-P2",[2],sub-millimolar range
same,increase of enzyme activity,[2],~50 fold
same,improvement of apparent affinity of the enzyme for Pyr,"[1]; 30 µM Fru-1,6-P2 (Figure 1)",8.4 fold
same,V max,"[1]; E. 10 µM Fru-1,6-P2",6.21±0.19 U/mg
same,V max,"[1]; G. 150 µM Fru-1,6-P2",63±4 U/mg
same,V max,"[1]; I. 2 mM Fru-1,6-P2",108±6 U/mg
same,EC50,"[1]; absence of Pyr (Figure 3A), read-out: A 0.5 for Fru-1,6-P2",120 µM
same,EC50,"[1]; as stated in legend of Figure 5, read-out: A 0.5 for Fru-1,6-P2",100 µM
same,decrease of Pyr A 0.5,"[1]; at 50 µM Fru-1,6-P2",5 fold
same,EC50,"[1]; presence of 2.5 mM Pyr (Figure 3A), read-out: A 0.5 for Fru-1,6-P2",70 µM
O=P(O)(O)OC1O[C@H](CO)[C@@H](O)[C@H](O)[C@H]1O (stereo partly drawn) [Glc-1P],Glc-1P S 0.5,[1]; A. No effector,0.95 ± 0.07 mM
same,Glc-1P n H,[1]; A. No effector,1.1
same,Glc-1P S 0.5,[1]; B. 25 mM Pyr,0.57 ± 0.05 mM
same,Glc-1P n H,[1]; B. 25 mM Pyr,1.0
same,Glc-1P S 0.5,[1]; C. 50 mM Pyr,0.37 ± 0.02 mM
same,Glc-1P n H,[1]; C. 50 mM Pyr,0.9
same,Glc-1P S 0.5,"[1]; D. 25 mM Pyr +10 µM Fru-1,6-P2",0.23 ± 0.02 mM
same,Glc-1P n H,"[1]; D. 25 mM Pyr +10 µM Fru-1,6-P2",1.3
same,Glc-1P S 0.5,"[1]; E. 10 µM Fru-1,6-P2",0.77 ± 0.04 mM
same,Glc-1P n H,"[1]; E. 10 µM Fru-1,6-P2",1.0
same,Glc-1P S 0.5,[1]; [4],0.09 ± 0.01 mM
same,Glc-1P n H,[1]; [4],1.1
same,Glc-1P S 0.5,"[1]; G. 150 µM Fru-1,6-P2",0.12 ± 0.01 mM
same,Glc-1P n H,"[1]; G. 150 µM Fru-1,6-P2",1.2
same,Glc-1P S 0.5,"[1]; I. 2 mM Fru-1,6-P2",0.09 ± 0.01 mM
same,Glc-1P n H,"[1]; I. 2 mM Fru-1,6-P2",1.3
same,Glc-1P S 0.5,"[1]; J. 50 mM Pyr +2 mM Fru-1,6-P2",0.11 ± 0.01 mM
same,Glc-1P n H,"[1]; J. 50 mM Pyr +2 mM Fru-1,6-P2",1.0
"Cc1ncc(COP(=O)(O)O)c(C=O)c1O [PLP, pyridoxal-5′-phosphate]",EC50,"[1]; absence of Pyr (Figure 3B), read-out: A 0.5 for PLP",2.7 µM
same,EC50,"[1]; presence of 10 mM Pyr (Figure 3B), read-out: A 0.5 for PLP",1 µM
"CC(=O)C(=O)O [Pyr, pyruvate]",EC50,"[2]; weak activation, read-out: A 0.5 for Pyr",> 10000 µM
same,Pyr activation,[3],5 fold
same,EC50,[3]; read-out: A 0.5 for Pyr,130 µM
same,activation of the partially inhibited enzyme,[1]; [5],4 fold
same,nH of Pyr activation,[1]; [5],1.2
same,EC50,"[1]; 50 µM AMP and 100 µM Fru-1,6-P2 (Figure 5), read-out: A 0.5 for Pyr",2760 µM
same,"absolute activity (reference for relative activity, Figure 4)","[1]; 20 mM Pyr with 100 µM Fru-1,6-P2, control without Pyr 31.2 U/mg",61.8 U/mg
same,decrease of apparent affinity for AMP,"[1]; 20 mM Pyr, 100 µM Fru-1,6-P2",3 fold
same,enzyme more active if Pyr was present (relative activities),"[1]; 20 mM Pyr, 100 µM Fru-1,6-P2, 0.05–0.15 mM AMP range",up to 3 fold
same,increase of affinity for Glc-1P,"[1]; 25 mM Pyr combined with 10 µM Fru-1,6-P2, compared to absence of any effector",4.1 fold
same,lowering of S 0.5 for ATP,"[1]; 25 mM Pyr combined with 10 µM Fru-1,6-P2, vs no effector",6.6 fold
same,lowering of S 0.5 for Glc-1P,[1]; 25 mM Pyr vs no effector,1.7 fold
same,reduction of S 0.5 for ATP,[1]; 25 mM Pyr vs no effector,3.9 fold
same,lowering of S 0.5 for Glc-1P,[1]; 50 mM Pyr vs no effector,2.6 fold
same,reduction of S 0.5 for ATP,[1]; 50 mM Pyr vs no effector,6.2 fold
same,increase of enzyme activity,"[1]; 100 mM Pyr (highest concentration tested), no other effector",3.3 fold
same,V max,[1]; B. 25 mM Pyr,3.93±0.21 U/mg
same,V max,[1]; C. 50 mM Pyr,5.31±0.19 U/mg
same,V max,"[1]; D. 25 mM Pyr +10 µM Fru-1,6-P2",31±2 U/mg
same,V max,[1]; [4],104±5 U/mg
same,A 0.5 for Pyr,"[1]; Figure 2, at increasing concentrations of Fru-1,6-P2",low mM range
same,V max,"[1]; J. 50 mM Pyr +2 mM Fru-1,6-P2",110±5 U/mg
same,increase in V max by Pyr,[1]; Pyr alone,~4 fold and 5 fold
same,nH of Pyr activation,[1]; absence of any other regulatory effector (Figure 1),1.03
same,EC50,"[1]; absence of any other regulatory effector (Figure 1), read-out: A 0.5 for Pyr",25000 µM
same,EC50,"[1]; at 50 µM Fru-1,6-P2, read-out: A 0.5 for Pyr",5000 µM
same,maximal activation by Pyr,"[1]; in presence of 10 µM or 30 µM Fru-1,6-P2 (Figure 1)",~6 fold
same,EC50,"[1]; presence of 1 µM PLP (data not shown), read-out: A 0.5 for Pyr",3700 µM
